From ChEMBL document CHEMBL3297711, “Application of encoded library technology (ELT) to a protein-protein interaction target: discovery of a potent class of integrin lymphocyte function-associated antigen 1 (LFA-1) antagonists” (Bioorg Med Chem, 2014)
Calls of active or inactive are those of the source. No cut-off for these calls is given here.

Columns and labels:
[1] = biological target: T1, Integrin alpha-L (Homo sapiens, UniProt P20701); assay: (§1) Antagonist activity at C-terminal 6xHis-tagged LFA-1 LBD (unknown origin) expressed in Escherichia coli assessed as inhibition of interaction with ICAM-1 preincubated for 30 mins followed by ICAM-1 addition measured after 60 mins by ELISA
T1 sequence (P20701 whole entry): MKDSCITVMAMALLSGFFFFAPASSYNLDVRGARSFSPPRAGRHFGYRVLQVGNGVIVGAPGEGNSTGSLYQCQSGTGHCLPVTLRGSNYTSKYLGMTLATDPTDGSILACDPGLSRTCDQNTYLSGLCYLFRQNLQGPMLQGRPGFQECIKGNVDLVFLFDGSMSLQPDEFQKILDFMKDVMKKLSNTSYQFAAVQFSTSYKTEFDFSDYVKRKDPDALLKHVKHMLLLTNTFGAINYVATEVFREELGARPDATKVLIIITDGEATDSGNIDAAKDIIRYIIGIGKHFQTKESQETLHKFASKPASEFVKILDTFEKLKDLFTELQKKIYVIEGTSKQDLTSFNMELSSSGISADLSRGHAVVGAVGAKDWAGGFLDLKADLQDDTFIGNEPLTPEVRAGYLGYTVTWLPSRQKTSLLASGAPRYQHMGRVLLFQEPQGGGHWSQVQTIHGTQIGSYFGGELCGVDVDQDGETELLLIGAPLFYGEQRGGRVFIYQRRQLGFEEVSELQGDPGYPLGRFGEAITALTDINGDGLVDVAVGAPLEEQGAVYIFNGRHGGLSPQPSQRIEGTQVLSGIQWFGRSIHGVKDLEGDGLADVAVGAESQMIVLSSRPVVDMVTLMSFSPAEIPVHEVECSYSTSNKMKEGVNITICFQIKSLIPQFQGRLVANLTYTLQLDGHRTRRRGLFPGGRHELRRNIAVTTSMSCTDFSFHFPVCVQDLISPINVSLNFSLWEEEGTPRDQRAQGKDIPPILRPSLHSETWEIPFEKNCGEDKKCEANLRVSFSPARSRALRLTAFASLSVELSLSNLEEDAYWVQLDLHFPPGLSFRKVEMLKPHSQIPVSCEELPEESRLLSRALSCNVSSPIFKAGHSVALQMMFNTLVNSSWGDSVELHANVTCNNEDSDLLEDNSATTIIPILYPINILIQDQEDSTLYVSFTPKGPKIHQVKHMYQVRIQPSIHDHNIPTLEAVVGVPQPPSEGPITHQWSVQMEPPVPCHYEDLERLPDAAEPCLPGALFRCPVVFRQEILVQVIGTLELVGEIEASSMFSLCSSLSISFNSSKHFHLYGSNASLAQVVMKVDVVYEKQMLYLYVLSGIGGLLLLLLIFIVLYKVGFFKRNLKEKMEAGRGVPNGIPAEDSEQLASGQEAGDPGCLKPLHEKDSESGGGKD

[2] = biological target: T2, Integrin alpha-L (Homo sapiens) (UniProt P20701); assay: as §1
T2 sequence (whole entry): T1 sequence (P20701 whole entry)

[3] = test system: K562; assay: Allosteric antagonist activity at LFA-1 K287C/K294C double mutant (unknown origin) transfected in human K562 cells assessed as inhibition of cell adhesion to ICAM-1 at 50 uM incubated for 30 mins under dark condition by microplate fluorimetric analysis in presence of DTT; assay type: cell-based
[4] = test system: K562; assay: Allosteric antagonist activity at LFA-1 K287C/K294C double mutant (unknown origin) transfected in human K562 cells assessed as inhibition of cell adhesion to ICAM-1 at 50 uM incubated for 30 mins under dark condition by microplate fluorimetric analysis in absence of DTT; assay type: cell-based
[5] = biological target: T2, Integrin alpha-L (Homo sapiens); assay: Allosteric antagonist activity at wild type LFA-1 (unknown origin) transfected in human K562 cells assessed as inhibition of cell adhesion to ICAM-1 at 50 uM incubated for 30 mins under dark condition by microplate fluorimetric analysis; assay type: cell-based
[6] = biological target: T2, Integrin alpha-L (Homo sapiens); assay: Antagonist activity at wild type LFA-1 in human Jurkat cells assessed as inhibition of PMA-stimulated cell adhesion to ICAM-1 at 50 uM incubated for 45 mins under dark condition by microplate fluorimetric analysis; assay type: cell-based
[7] = biological target: T2, Integrin alpha-L (Homo sapiens); assay: Binding affinity to LFA-1 (unknown origin) transfected in human K562 cells by FACS analysis relative to control; assay type: cell-based

## CCNC(=O)C1(Nc2nc(NCCc3ccc(Cl)c(Cl)c3)nc(N3CC4CC3CN4C(=O)c3cccc(C(F)(F)F)c3)n2)Cc2ccccc2C1 (stereo not drawn)
[1]
  IC50: 23 nM
[2]
  inhibition: Dose-dependent effect
[3]
  inhibition: Active
[4]
  inhibition: inactive
[5]
  inhibition: Active
[6]
  inhibition: Active

## CCN1/C(=C/C=C/C2=[N+](CCCCCC(=O)NCCCCNC(=O)C3(Nc4nc(NCCc5ccc(Cl)c(Cl)c5)nc(N5CC6CC5CN6C(=O)c5cccc(C(F)(F)F)c5)n4)Cc4ccccc4C3)c3ccc(S(=O)(=O)O)cc3C2(C)C)C(C)(C)c2cc(S(=O)(=O)O)ccc21 (stereo not drawn)
[1]
  IC50: 100 nM
[7]
  fold change (FC): 3

## O=C(c1cccc(C(F)(F)F)c1)N1CC2CC1CN2c1nc(NCCc2ccc(Cl)c(Cl)c2)nc(NC2Cc3ccccc3C2)n1 (stereo not drawn)
[1]
  IC50: 358 nM

## CCNC(=O)C1(Nc2nc(N[C@H](C)c3ccccc3)nc(N3CC4CC3CN4C(=O)c3cccc(C(F)(F)F)c3)n2)Cc2ccccc2C1 (stereo partly drawn)
[1]
  IC50: > 10000 nM

## O=C(c1cccc(C(F)(F)F)c1)N1CC2CC1CN2c1nc(NCCc2ccc(Cl)c(Cl)c2)nc(NC2CCCC2)n1 (stereo not drawn)
[1]
  IC50: > 10000 nM

## CCNC(=O)C1(Nc2nc(N[C@@H](C)c3ccc(Br)cc3)nc(N3CC4CC3CN4S(=O)(=O)c3ccccc3OC(F)(F)F)n2)Cc2ccccc2C1 (stereo partly drawn)
[1]
  IC50: 117 nM
[2]
  inhibition: Dose-dependent effect
[3]
  inhibition: Active
[4]
  inhibition: inactive
[5]
  inhibition: Active
[6]
  inhibition: Active

## CCN1/C(=C/C=C/C2=[N+](CCCCCC(=O)NCCCCNC(=O)C3(Nc4nc(NCCc5ccc(Cl)c(Cl)c5)nc(N5CC6CC5CN6S(=O)(=O)c5cccc(C(F)(F)F)c5)n4)Cc4ccccc4C3)c3ccc(S(=O)(=O)O)cc3C2(C)C)C(C)(C)c2cc(S(=O)(=O)O)ccc21 (stereo not drawn)
[1]
  IC50: 28 nM
[7]
  fold change (FC): 2

## CCNC(=O)C1(Nc2nc(NCCc3ccc(Cl)c(Cl)c3)nc(N3CCCC3)n2)Cc2ccccc2C1
[1]
  IC50: 12900 nM

## O=C(O)C1(Nc2nc(NCCc3ccc(Cl)c(Cl)c3)nc(N3CC4CC3CN4S(=O)(=O)c3cccc(C(F)(F)F)c3)n2)Cc2ccccc2C1 (stereo not drawn)
[1]
  IC50: 65 nM

## CCNC(=O)C1(Nc2nc(NCCc3ccc(Cl)c(Cl)c3)nc(N3CC4CC3CN4S(=O)(=O)c3ccccc3OC(F)(F)F)n2)Cc2ccccc2C1 (stereo not drawn)
[1]
  IC50: 22 nM
[2]
  inhibition: Dose-dependent effect
[3]
  inhibition: Active
[4]
  inhibition: inactive
[5]
  inhibition: Active
[6]
  inhibition: Active

## CCNC(=O)C1(Nc2nc(NCC)nc(N3CC4CC3CN4C(=O)c3cccc(C(F)(F)F)c3)n2)Cc2ccccc2C1 (stereo not drawn)
[1]
  IC50: > 10000 nM

## CCNC(=O)C1(Nc2nc(NCCc3ccccc3)nc(N3CC4CC3CN4C(=O)c3cccc(C(F)(F)F)c3)n2)Cc2ccccc2C1 (stereo not drawn)
[1]
  IC50: 488 nM

## CCNC(=O)C1(Nc2nc(NCc3ccccc3)nc(N3CC4CC3CN4C(=O)c3cccc(C(F)(F)F)c3)n2)Cc2ccccc2C1 (stereo not drawn)
[1]
  IC50: 7900 nM

## O=C(c1cccc(C(F)(F)F)c1)N1CC2CC1CN2c1nc(NCCc2ccc(Cl)c(Cl)c2)nc(NC2(C(=O)O)Cc3ccccc3C2)n1 (stereo not drawn)
[1]
  IC50: 37 nM

## CCNC(=O)C1(Nc2nc(N[C@@H](C)c3ccccc3)nc(N3CC4CC3CN4C(=O)c3cccc(C(F)(F)F)c3)n2)Cc2ccccc2C1 (stereo partly drawn)
[1]
  IC50: 180 nM

## CCNC(=O)C1(Nc2nc(N[C@@H](C)c3ccc(Br)cc3)nc(N3CC4CC3CN4C(=O)c3cccc(C(F)(F)F)c3)n2)Cc2ccccc2C1 (stereo partly drawn)
[1]
  IC50: 16 nM
[2]
  inhibition: Dose-dependent effect
[3]
  inhibition: Active
[4]
  inhibition: inactive
[5]
  inhibition: Active
[6]
  inhibition: Active
